Reference: patent publication US20170105969A1, “CENICRIVIROC FOR THE TREATMENT OF HIV-2 INFECTION” (Tobira Therapeutics, Inc., priority 2014, published 2017)
Marks after values point to notes of the source that are not given here.

Experiments:
CCR7 = target: T1, CCR7 (Homo sapiens, UniProt P32248); experiment: Ligand binding to CCR7
T1 sequence (P32248 25-378): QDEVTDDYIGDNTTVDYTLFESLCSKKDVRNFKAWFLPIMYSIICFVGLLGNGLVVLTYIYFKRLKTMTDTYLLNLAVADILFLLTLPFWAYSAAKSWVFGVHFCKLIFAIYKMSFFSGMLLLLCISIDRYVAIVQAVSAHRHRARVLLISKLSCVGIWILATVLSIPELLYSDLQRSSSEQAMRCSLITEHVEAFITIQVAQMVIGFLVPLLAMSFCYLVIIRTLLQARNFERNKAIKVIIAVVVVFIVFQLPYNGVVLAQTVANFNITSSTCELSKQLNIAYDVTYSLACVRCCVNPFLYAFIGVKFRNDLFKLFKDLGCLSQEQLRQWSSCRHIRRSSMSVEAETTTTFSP

CCR5-tropic HIV-1 = experiment: Study 201: plasma HIV-1 RNA over 10 days of CVC monotherapy; format: in vivo, human; settings: for subjects who achieved HIV-1 RNA levels <400 copies/mL: over the entire study; for HIV-1 RNA, LS mean (SEM) change from Baseline / HIV-1 RNA, Median change from Baseline: Day 11
Description: Subjects were antiretroviral treatment experienced, CCR5 antagonist-naïve, with HIV-1 RNA levels of at least 5000 copies/mL and CD4+ cell counts of at least 250 cells/mm^3. Subjects with HIV-2, hepatitis B virus, or hepatitis C virus co-infection or dual/mixed-tropic HIV-1 were ineligible. Other than their HIV-1 infection, subjects were generally healthy.
In this study, all dose groups received the original formulation (DP3_25), except the 100 mg dose group which received an alternative formulation (DP4_100). […] These subjects were excluded from the efficacy, PK, and PK/PD data, but included in the baseline and safety data. In this study, safety and tolerability were assessed by monitoring AEs, vital signs, ECGs, clinical laboratory values from blood and urine, and physical examinations. Data from all subjects on placebo were pooled for the analyses.

HIV = experiment: Ex vivo intracellular HIV DNA (qPCR) in PBMCs of Study 202 subjects; settings: Week 24
Description: (§1) Early (strong-stop) and late (full-length) reverse transcript levels were measured by qPCR. […] P24 and viral load levels were measured by ELISA and qRT-PCR after 4 hours.

CCR4 = target: T2, CCR4 (Homo sapiens, UniProt P51679); experiment: Ligand binding to CCR4
T2 sequence (P51679 1-360): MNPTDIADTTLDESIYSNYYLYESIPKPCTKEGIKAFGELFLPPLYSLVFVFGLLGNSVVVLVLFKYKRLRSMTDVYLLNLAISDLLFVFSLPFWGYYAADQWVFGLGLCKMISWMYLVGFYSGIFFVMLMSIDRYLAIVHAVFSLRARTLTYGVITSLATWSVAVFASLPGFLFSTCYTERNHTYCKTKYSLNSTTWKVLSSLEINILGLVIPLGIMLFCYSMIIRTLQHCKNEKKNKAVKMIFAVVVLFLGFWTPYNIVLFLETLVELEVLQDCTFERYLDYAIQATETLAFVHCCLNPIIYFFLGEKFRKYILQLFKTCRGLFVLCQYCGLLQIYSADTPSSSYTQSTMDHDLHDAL

CCR1 = target: T3, CCR1 (Homo sapiens, UniProt P32246); experiment: Ligand binding to CCR1
T3 sequence (P32246 1-355): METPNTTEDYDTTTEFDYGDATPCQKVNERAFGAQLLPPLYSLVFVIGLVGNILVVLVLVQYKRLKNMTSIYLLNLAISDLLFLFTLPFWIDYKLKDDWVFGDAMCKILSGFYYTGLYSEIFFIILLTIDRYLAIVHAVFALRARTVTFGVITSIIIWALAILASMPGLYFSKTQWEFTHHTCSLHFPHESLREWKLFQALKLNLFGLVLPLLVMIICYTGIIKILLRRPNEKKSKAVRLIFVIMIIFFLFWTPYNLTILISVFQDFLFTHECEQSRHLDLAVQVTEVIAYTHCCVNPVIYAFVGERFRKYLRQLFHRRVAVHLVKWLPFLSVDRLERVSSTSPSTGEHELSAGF

HIV-1 [1] = experiment: Study 202: virologic response (plasma HIV-1 RNA <50 copies/mL), Snapshot algorithm, ITT; format: in vivo, human
[2] = tested on: RANTES-induced Ca2+ mobilization; experiment: RANTES-induced Ca2+ mobilization; format: cell-based
CCR5-tropic HIV-1 BaL = experiment: PM-1 cells infected with HIV-1 BaL, supernatant P24 and viral load after 4 hours; format: cell-based; settings: CVC 20 nM or MVC 50 nM
Description: as §1

HIV-1 [3] = experiment: Study 201: pharmacokinetic/pharmacodynamic relationships (Emax model); format: in vivo, human
Source text: Drug response was characterized using the following maximum effect (Emax) model: […]

CCCCOCCOc1ccc(-c2ccc3c(c2)/C=C(/C(=O)Nc2ccc([S@@+]([O-])Cc4cncn4CCC)cc2)CCCN3CC(C)C)cc1 [CVC, (S)-8-[4-(2-Butoxyethoxy)phenyl]-1-isobutyl-N-(4-{[(1-propyl-1H-imidazol-5-yl)methyl]sulfinyl}phenyl)-1,2,3,4-tetrahydro-1-benzazocine-5-carboxamide]
inhibition of ligand binding (in words) (CCR7): did not inhibit
HIV-1 RNA, Baseline LS mean (SEM) (CCR5-tropic HIV-1; 25 mg cohort, Baseline): 4.46 (0.18) log10 copies/mL
subjects who achieved HIV-1 RNA levels <400 copies/mL (CCR5-tropic HIV-1; 25 mg dose group): 1
HIV-1 RNA, Nadir values, Median change from Baseline (CCR5-tropic HIV-1; 25 mg once daily): −0.7 log10 copies/mL
Median days to nadir (CCR5-tropic HIV-1; 25 mg once daily): 10.0 days
HIV-1 RNA, LS mean (SEM) change from Baseline (CCR5-tropic HIV-1; 25 mg once daily): −0.64 (0.14) log10 copies/mL
HIV-1 RNA, Median change from Baseline (CCR5-tropic HIV-1; 25 mg once daily): −0.5 log10 copies/mL
HIV-1 RNA, Baseline LS mean (SEM) (CCR5-tropic HIV-1; 50 mg cohort, Baseline): 4.33 (0.21) log10 copies/mL
subjects who achieved HIV-1 RNA levels <400 copies/mL (CCR5-tropic HIV-1; 50 mg dose group): 2
HIV-1 RNA, Nadir values, Median change from Baseline (CCR5-tropic HIV-1; 50 mg once daily): −1.6 log10 copies/mL
Median days to nadir (CCR5-tropic HIV-1; 50 mg once daily): 11.0 days
HIV-1 RNA, LS mean (SEM) change from Baseline (CCR5-tropic HIV-1; 50 mg once daily): −1.13 (0.16) log10 copies/mL
HIV-1 RNA, Median change from Baseline (CCR5-tropic HIV-1; 50 mg once daily): −1.3 log10 copies/mL
HIV-1 RNA, Baseline LS mean (SEM) (CCR5-tropic HIV-1; 75 mg cohort, Baseline): 4.65 (0.19) log10 copies/mL
HIV-1 RNA, Nadir values, Median change from Baseline (CCR5-tropic HIV-1; 75 mg once daily): −1.8 log10 copies/mL
Median days to nadir (CCR5-tropic HIV-1; 75 mg once daily): 10.0 days
HIV-1 RNA, LS mean (SEM) change from Baseline (CCR5-tropic HIV-1; 75 mg once daily): −1.46 (0.15) log10 copies/mL
HIV-1 RNA, Median change from Baseline (CCR5-tropic HIV-1; 75 mg once daily): −1.6 log10 copies/mL
HIV-1 RNA, Baseline LS mean (SEM) (CCR5-tropic HIV-1; 150 mg cohort, Baseline): 4.10 (0.19) log10 copies/mL
subjects who achieved HIV-1 RNA levels of <50 copies/mL (CCR5-tropic HIV-1; 150 mg dose group): 2
subjects who achieved HIV-1 RNA levels <400 copies/mL (CCR5-tropic HIV-1; 150 mg dose group): 3
HIV-1 RNA, Nadir values, Median change from Baseline (CCR5-tropic HIV-1; 150 mg once daily): −1.7 log10 copies/mL
Median days to nadir (CCR5-tropic HIV-1; 150 mg once daily): 11.0 days
HIV-1 RNA, LS mean (SEM) change from Baseline (CCR5-tropic HIV-1; 150 mg once daily): −1.42 (0.16) log10 copies/mL
HIV-1 RNA, Median change from Baseline (CCR5-tropic HIV-1; 150 mg once daily): −1.5 log10 copies/mL
drug resistance testing (in words) (CCR5-tropic HIV-1; Baseline, Day 7, Day 40, all subjects with evaluable samples): remained fully susceptible
Strong-stop HIV DNA decline (marker of HIV entry) (HIV; CVC 100 mg arm): 51%
Strong-stop HIV DNA decline (marker of HIV entry) (HIV; CVC 200 mg arm): 37%
inhibition of ligand binding (in words) (CCR4): weakly inhibited
inhibition of ligand binding (in words) (CCR1): did not inhibit
HIV-1 RNA ≧50 but <400 copies/mL (HIV-1 [1]; Week 24, CVC 100 mg arm): (5%)^d
HIV-1 RNA ≧400 copies/mL (HIV-1 [1]; Week 24, CVC 200 mg arm): (7%)
virologic non-response, subgroup with high baseline viral load (≧100,000 copies/mL) (HIV-1 [1]; Week 48, CVC 100 mg): 20%
Treatment difference from EFV arm (HIV-1 [1]; Week 48, CVC 100 mg arm): 18%
virologic non-response, subgroup with high baseline viral load (≧100,000 copies/mL) (HIV-1 [1]; Week 48, CVC 200 mg): 21%
Discontinued study due to AE or death (HIV-1 [1]; Week 48, CVC 200 mg arm): (2%)
Treatment difference from EFV arm (HIV-1 [1]; Week 48, CVC 200 mg arm): 16%
Week 48 non-response, CVC-treated Black or African American subjects (HIV-1 [1]; Week 48, both CVC arms): 8-15%
RANTES-induced Ca2+ mobilization (in words) [2]: blocked
supernatant P24 (CCR5-tropic HIV-1 BaL; 0 hrs (baseline)): 506 ng/mL
viral load (CCR5-tropic HIV-1 BaL; 0 hrs): 1.19×10^10 copies/ml
supernatant P24 (CCR5-tropic HIV-1 BaL; 4 hrs): 192 ng/mL
viral load (CCR5-tropic HIV-1 BaL; 4 hrs): 1.26×10^10 copies/ml
Emax in the PK/PD model (HIV-1 [3]; HIV-1 RNA, Study 201): −1.43 log10 copies/mL
Emax at 25 mg (HIV-1 [3]; Human immunodeficiency virus 1, 25 mg dose, read-out: percent of the maximum inhibitory effect at average Css (Emax model)): 54.9%
Emax at 50 mg (HIV-1 [3]; Human immunodeficiency virus 1, 50 mg dose, read-out: percent of the maximum inhibitory effect at average Css (Emax model)): 79.8%
Emax at 75 mg (HIV-1 [3]; Human immunodeficiency virus 1, 75 mg dose, read-out: percent of the maximum inhibitory effect at average Css (Emax model)): 85.9%
Emax at 150 mg (HIV-1 [3]; Human immunodeficiency virus 1, 150 mg dose, read-out: percent of the maximum inhibitory effect at average Css (Emax model)): 95.9%
